The target in test [1] is Serine/threonine-protein kinase Chk2 (Homo sapiens) (UniProt O96017). The test is described as follows: Selectivity interaction (Ambit KINOMEscan and KiNATiv profiling in Jurkat cells) EUB0000090b CHEK2. Particulars: at 1 µM. Type of test: cell-based.
Test [2] has as its target cAMP-dependent protein kinase catalytic subunit beta (Homo sapiens) (UniProt P22694). The test is described as follows: Selectivity interaction (Ambit KINOMEscan and KiNATiv profiling in Jurkat cells) EUB0000090b PRKACB. Type of test: cell-based. Particulars: at 1 µM.
Test [3] deals with T1, Casein kinase I isoform alpha-like (Homo sapiens) (UniProt Q8N752).
T1 sequence (whole entry): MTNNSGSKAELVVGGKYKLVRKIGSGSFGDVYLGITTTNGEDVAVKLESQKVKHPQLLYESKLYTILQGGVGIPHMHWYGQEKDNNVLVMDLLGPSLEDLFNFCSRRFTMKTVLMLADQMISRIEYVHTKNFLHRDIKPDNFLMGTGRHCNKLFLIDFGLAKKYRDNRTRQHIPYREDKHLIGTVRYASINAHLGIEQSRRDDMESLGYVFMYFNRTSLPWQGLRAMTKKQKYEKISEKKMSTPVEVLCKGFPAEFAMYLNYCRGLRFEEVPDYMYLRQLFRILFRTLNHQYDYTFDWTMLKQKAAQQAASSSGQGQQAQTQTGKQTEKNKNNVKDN
Description: Selectivity interaction (KinomeScan (DiscoverX)) EUB0001049a CSNK1A1L. The settings on record: at 1 µM.

Test [4] deals with Serine/threonine-protein kinase PAK 4 (Homo sapiens, UniProt O96013). The test is described as follows: Selectivity interaction (KinomeScan (DiscoverX)) EUB0000655a PAK4. The settings on record: at 10 µM.
In test [5] the target is Tyrosine-protein kinase JAK2 (Homo sapiens, UniProt O60674). Description: Selectivity interaction (Kinase panel (Carna Biosciences)) EUB0001542aTs JAK2. Particulars: at 1 µM.
Test [6] addresses T2, Protein arginine N-methyltransferase 7 (Homo sapiens) (UniProt Q9NVM4).
T2 sequence (whole entry): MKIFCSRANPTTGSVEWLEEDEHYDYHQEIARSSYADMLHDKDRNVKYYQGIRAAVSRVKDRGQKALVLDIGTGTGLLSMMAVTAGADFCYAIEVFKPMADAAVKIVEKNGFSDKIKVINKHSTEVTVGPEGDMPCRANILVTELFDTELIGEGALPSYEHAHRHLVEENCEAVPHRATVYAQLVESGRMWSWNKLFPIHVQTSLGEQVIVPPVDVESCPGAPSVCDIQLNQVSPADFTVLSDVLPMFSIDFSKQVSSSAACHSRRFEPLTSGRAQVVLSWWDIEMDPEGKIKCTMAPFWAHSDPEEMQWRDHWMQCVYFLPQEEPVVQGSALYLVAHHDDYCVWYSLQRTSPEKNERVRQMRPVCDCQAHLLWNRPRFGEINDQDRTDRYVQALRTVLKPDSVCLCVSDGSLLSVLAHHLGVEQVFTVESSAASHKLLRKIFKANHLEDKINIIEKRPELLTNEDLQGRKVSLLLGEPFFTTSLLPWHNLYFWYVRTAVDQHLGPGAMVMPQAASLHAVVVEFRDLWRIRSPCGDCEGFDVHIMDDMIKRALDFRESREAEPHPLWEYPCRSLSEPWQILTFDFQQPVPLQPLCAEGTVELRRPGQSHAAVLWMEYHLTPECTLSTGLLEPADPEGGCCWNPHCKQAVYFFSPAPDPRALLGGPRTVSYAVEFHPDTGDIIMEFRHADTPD
The settings on record: at 10 µM.

The target of test [7] is T3, Serine/threonine-protein kinase DCLK2 (Homo sapiens) (UniProt Q8N568).
T3 sequence (whole entry): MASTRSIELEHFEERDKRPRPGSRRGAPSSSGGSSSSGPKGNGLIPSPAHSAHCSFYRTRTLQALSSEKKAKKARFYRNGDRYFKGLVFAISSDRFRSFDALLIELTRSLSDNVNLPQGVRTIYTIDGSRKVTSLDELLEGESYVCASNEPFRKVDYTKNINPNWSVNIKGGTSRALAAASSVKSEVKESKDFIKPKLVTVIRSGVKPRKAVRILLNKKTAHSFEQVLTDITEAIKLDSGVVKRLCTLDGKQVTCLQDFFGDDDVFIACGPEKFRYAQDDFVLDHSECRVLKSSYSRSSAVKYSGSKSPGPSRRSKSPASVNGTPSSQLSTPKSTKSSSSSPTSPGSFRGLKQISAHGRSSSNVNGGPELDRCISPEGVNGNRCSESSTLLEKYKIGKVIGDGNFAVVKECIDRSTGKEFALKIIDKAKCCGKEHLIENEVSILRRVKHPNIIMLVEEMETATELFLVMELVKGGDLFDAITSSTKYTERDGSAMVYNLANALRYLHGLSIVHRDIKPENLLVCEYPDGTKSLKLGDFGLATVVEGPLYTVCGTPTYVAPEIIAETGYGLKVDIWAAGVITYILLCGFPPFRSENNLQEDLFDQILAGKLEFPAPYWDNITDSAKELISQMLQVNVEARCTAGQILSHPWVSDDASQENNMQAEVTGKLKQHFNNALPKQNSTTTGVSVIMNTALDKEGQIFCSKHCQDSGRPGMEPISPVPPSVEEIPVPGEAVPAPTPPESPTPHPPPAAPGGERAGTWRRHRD
The test is described as follows: Selectivity interaction (SelectScreen profiling (Invitrogen)) EUB0000607a DCLK2. The settings on record: at 2 µM.

Test [8] concerns the target T4, NUAK family SNF1-like kinase 1 (Homo sapiens) (UniProt O60285).
T4 sequence (whole entry): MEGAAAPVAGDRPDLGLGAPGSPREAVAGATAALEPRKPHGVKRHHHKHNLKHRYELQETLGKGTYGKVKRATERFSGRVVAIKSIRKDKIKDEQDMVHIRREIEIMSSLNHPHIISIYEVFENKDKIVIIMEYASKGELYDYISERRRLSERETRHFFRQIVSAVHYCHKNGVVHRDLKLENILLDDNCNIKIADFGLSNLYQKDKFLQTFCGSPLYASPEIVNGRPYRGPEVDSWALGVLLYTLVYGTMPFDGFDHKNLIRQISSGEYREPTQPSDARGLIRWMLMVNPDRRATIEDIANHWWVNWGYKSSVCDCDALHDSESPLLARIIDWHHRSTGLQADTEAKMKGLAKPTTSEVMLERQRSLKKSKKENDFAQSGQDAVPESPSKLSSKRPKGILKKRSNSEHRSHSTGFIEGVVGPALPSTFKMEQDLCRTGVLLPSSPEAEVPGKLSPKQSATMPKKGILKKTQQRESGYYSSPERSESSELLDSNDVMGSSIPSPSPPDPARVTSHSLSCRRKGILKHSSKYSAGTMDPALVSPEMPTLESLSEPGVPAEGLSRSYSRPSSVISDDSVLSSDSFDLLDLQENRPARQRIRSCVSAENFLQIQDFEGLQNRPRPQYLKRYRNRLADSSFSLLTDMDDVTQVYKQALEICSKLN
Description: Selectivity interaction (Kinase panel (Invitrogen)) EUB0000639a NUAK1. Particulars: at 200 nM.

Test [9] has as its system eIF-2-alpha kinase GCN2 (Homo sapiens), Q9P2K8 [S808G]. The test is described as follows: Selectivity interaction (KinomeScan (DiscoverX)) EUB0001619a EIF2AK4. The settings on record: at 1 µM.

Serine/threonine-protein kinase Chk2 (Homo sapiens), sequence (O96017 whole entry): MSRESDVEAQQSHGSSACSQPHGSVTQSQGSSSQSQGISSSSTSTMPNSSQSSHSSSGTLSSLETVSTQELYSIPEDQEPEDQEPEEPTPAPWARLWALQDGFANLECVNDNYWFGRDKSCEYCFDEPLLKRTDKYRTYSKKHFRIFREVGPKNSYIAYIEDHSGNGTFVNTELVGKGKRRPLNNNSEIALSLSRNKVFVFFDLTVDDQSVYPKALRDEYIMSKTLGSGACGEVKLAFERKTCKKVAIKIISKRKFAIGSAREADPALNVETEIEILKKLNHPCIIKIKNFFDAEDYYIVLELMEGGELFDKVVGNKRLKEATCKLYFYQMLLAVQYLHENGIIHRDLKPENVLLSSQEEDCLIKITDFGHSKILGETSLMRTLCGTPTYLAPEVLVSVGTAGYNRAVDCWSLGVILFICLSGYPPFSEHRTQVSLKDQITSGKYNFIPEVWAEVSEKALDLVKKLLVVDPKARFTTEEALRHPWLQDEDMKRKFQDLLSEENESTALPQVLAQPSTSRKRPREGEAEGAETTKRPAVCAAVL
Tyrosine-protein kinase JAK2, sequence (O60674 whole entry): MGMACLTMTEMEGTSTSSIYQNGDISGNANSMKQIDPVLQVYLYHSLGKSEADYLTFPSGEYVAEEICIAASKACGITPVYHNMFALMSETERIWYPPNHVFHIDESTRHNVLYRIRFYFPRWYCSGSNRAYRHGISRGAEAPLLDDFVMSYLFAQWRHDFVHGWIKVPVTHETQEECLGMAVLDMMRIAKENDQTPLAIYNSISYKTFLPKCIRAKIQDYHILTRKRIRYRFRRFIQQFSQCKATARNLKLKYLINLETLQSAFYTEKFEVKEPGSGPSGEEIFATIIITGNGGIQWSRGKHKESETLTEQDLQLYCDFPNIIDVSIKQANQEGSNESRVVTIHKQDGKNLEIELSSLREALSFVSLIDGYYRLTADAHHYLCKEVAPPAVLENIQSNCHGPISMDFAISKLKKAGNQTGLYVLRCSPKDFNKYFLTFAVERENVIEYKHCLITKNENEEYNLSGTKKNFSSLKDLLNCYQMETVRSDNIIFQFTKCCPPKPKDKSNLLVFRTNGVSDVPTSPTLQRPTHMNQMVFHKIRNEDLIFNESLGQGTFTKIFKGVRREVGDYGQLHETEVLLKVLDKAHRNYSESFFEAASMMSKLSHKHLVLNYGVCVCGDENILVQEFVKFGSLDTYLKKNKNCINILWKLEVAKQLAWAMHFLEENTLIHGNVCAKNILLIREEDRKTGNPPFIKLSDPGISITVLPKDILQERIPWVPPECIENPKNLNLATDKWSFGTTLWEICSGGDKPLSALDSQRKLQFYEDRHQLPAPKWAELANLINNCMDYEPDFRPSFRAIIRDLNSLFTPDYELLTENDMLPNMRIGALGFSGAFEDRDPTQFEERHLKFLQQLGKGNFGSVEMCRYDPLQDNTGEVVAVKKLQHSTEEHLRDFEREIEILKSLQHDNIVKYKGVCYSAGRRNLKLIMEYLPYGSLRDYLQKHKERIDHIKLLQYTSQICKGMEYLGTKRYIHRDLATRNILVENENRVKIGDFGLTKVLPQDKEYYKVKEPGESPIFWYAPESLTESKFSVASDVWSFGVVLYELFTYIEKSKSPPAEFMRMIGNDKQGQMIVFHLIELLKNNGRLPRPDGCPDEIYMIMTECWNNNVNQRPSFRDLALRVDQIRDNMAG
eIF-2-alpha kinase GCN2 (Homo sapiens), Q9P2K8 [S808G], sequence (Q9P2K8 whole entry S808G): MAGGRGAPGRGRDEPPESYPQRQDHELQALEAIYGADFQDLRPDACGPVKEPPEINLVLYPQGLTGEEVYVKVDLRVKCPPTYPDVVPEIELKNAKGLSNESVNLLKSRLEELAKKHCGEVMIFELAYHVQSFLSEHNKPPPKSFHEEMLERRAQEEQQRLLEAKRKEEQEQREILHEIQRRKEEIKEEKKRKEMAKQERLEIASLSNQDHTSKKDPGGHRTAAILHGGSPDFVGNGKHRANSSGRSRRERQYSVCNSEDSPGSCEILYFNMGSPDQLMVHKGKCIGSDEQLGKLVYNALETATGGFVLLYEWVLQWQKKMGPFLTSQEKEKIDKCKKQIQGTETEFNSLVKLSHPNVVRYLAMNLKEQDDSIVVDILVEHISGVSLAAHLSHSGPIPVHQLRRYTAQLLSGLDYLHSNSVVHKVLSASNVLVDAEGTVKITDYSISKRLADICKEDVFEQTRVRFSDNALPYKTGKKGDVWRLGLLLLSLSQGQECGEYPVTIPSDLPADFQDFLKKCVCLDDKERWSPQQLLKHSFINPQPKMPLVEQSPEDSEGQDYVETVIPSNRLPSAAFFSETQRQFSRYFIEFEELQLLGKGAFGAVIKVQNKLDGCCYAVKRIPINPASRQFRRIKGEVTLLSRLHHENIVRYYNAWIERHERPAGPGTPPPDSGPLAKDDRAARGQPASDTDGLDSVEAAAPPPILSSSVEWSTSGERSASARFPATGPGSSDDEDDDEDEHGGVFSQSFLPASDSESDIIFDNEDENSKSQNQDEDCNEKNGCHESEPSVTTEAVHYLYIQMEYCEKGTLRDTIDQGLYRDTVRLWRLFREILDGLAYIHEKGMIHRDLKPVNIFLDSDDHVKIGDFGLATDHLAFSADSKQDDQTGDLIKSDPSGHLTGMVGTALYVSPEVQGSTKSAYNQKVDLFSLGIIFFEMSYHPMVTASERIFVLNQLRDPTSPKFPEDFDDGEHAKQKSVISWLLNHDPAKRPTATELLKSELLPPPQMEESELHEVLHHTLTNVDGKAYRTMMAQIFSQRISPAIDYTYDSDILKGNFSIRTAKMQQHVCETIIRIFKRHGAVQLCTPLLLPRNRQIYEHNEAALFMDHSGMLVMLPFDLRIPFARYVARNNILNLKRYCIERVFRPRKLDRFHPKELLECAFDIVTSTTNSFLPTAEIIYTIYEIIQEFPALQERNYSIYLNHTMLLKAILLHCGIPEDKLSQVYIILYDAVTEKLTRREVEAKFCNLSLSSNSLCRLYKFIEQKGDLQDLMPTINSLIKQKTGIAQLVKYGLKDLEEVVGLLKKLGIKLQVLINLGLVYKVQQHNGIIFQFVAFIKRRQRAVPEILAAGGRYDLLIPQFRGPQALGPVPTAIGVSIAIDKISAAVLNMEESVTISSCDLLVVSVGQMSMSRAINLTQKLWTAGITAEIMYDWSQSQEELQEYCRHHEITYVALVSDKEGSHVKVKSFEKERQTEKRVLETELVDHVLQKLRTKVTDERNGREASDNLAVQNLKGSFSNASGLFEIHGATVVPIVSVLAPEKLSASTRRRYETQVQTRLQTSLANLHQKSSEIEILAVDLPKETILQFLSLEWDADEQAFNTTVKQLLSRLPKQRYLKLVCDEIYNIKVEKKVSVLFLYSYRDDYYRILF
Serine/threonine-protein kinase PAK 4, sequence (O96013 whole entry, looked up): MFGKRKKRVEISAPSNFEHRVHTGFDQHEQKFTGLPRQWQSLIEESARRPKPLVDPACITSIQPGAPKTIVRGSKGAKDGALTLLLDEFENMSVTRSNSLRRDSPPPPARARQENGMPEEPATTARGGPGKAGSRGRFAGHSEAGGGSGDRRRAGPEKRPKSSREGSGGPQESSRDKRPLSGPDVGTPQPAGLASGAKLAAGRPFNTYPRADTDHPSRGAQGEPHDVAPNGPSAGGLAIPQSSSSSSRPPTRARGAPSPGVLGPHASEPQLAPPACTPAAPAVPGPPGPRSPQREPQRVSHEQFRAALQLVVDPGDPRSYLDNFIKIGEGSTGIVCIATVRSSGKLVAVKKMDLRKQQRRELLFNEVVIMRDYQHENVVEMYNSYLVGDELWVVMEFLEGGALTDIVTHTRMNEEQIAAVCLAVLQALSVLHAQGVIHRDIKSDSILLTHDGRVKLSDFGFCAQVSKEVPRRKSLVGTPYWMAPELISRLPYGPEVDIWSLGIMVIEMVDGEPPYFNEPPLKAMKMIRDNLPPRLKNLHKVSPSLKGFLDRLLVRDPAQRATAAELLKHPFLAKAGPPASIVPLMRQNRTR

Take `CN(C)C/C=C/C(=O)Nc1ccc(C(=O)N2CCCC(Nc3ncc(Cl)c(-c4c[nH]c5ccccc45)n3)C2)cc1` (centres undefined): the % of control in test [1] came to 81%; in test [2], 90%.
With `COc1cc(Nc2nc(C)cc(-c3cnn4nc(OC)ccc34)n2)cc(C(F)(F)F)c1`, the % of control in test [3] amounted to 100%.
For the molecule `CN(C)CCOc1ccc(-c2nc(-c3ccncc3)c(-c3ccc4c(c3)CC/C4=N\O)[nH]2)cc1`, the % of control in test [4] came to 92%.
`Cn1cc(Nc2nccc(N3CC4CCC(C3)N4C(=O)[C@@H]3CC3(F)F)n2)cn1` yielded a % of inhibition in test [5] of 94%.
As for `CNCCN1CCC(c2cc(CN(C)C(=O)c3cccc(Oc4ccccc4)c3)ccn2)CC1`, in test [6], the % activity was > 90%.
The molecule `CNC(=O)Nc1ccc(-c2nc(N3CC4CCC(C3)O4)c3cnn(C4CCC5(CC4)OCCO5)c3n2)cc1` came in with a % of inhibition in [7] of 2%.
Consider `CC[C@@H]1[C@H](F)C(=O)N[C@@H]1COc1nccc2cc(C(N)=O)c(OC)cc12` [ZIMLOVISERTIB], for which the % of inhibition in [8] is 2.96%.
`N#Cc1cccc(-c2c[nH]c3ncnc(N4CCOCC4)c23)c1`: the % of control in test [9] was determined as 100%.

These data come from ChEMBL document CHEMBL5465560, “Selectivity Literature for EUbOPEN Chemogenomic Library” (2024).
